Source: ChEMBL document CHEMBL1201862, “PubChem BioAssay data set” (2004)
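Exposure lasted 48 hours, with cells grown in 96-well plates and compounds tested at five concentrations. GI50 marks 50% less growth.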 Active and inactive are the calls of the source. No stated cut-off is given here; in the data, active = GI50 up to about 1.1 µM and inactive = higher.

Tests used:
Test in all cases: NCI anticancer screen, dose series, 48 h
HOP-62 = system: HOP-62
OVCAR-3 = system: OVCAR-3
PC-3 = system: PC-3
BT-549 = system: BT-549
UACC-62 = system: UACC-62
MCF7 = system: MCF7
DU-145 = system: DU-145
RXF 393 = system: RXF 393
Malme-3M = system: Malme-3M
HT-29 = system: HT-29
OVCAR-5 = system: OVCAR-5
SF-268 = system: SF-268
T47D = system: T47D
SK-MEL-5 = system: SK-MEL-5
M14 = system: M14
SW-620 = system: SW-620
UACC-257 = system: UACC-257
NCI-H460 = system: NCI-H460
NCI/ADR-RES = system: NCI/ADR-RES
CAKI-1 = system: CAKI-1

Measured: GI50

COc1cc(Nc2n[nH]c(NS(=O)(=O)c3cc(C)c(Cl)cc3S)n2)cc(OC)c1OC
inactive: HOP-62 > 100 µM | OVCAR-3 > 100 µM | PC-3 > 100 µM | BT-549 > 100 µM | UACC-62 > 100 µM | MCF7 > 100 µM | DU-145 > 100 µM | RXF 393 > 100 µM | Malme-3M > 100 µM | HT-29 > 100 µM | OVCAR-5 > 100 µM | SF-268 > 100 µM | T47D > 100 µM | SK-MEL-5 > 100 µM | M14 > 100 µM | SW-620 > 100 µM | UACC-257 > 100 µM | NCI-H460 > 100 µM | NCI/ADR-RES > 100 µM | CAKI-1 > 100 µM

[N-]=[N+]=NC(c1ccccc1)(c1ccccc1)c1ccccc1
inactive: HOP-62 19.5 µM | OVCAR-3 20.4 µM | PC-3 15.2 µM | BT-549 19.7 µM | UACC-62 15.4 µM | MCF7 17.5 µM | DU-145 17.3 µM | RXF 393 15.7 µM | Malme-3M 14.6 µM | HT-29 16 µM | OVCAR-5 16 µM | SF-268 18.5 µM | T47D 16 µM | SK-MEL-5 13.8 µM | M14 18.4 µM | SW-620 17.7 µM | UACC-257 16 µM | NCI-H460 16.6 µM | NCI/ADR-RES 16.7 µM | CAKI-1 17.4 µM

CN(C)c1ccc(/C=C(\C#N)C(N)=C(C#N)C#N)cc1
inactive: HOP-62 > 100 µM | OVCAR-3 > 100 µM | PC-3 > 100 µM | BT-549 > 100 µM | UACC-62 94 µM | MCF7 > 100 µM | DU-145 > 100 µM | RXF 393 > 100 µM | Malme-3M 32 µM | HT-29 > 100 µM | OVCAR-5 > 100 µM | SF-268 > 100 µM | T47D > 100 µM | SK-MEL-5 > 100 µM | M14 30 µM | SW-620 > 100 µM | UACC-257 97.9 µM | NCI-H460 > 100 µM | NCI/ADR-RES > 100 µM | CAKI-1 > 100 µM

CC(C)(C)c1ccc(C(C)(C)C)c(N2C(=O)[C@@H]3[C@@H]4C=C[C@@H](C4)[C@]3(C)C2=O)c1
inactive: HOP-62 44 µM | OVCAR-3 13.9 µM | PC-3 20.2 µM | BT-549 22.4 µM | UACC-62 13.1 µM | MCF7 22.4 µM | DU-145 20.2 µM | RXF 393 15.5 µM | Malme-3M 21.9 µM | HT-29 29.2 µM | OVCAR-5 86.5 µM | SF-268 27.9 µM | T47D 18.4 µM | SK-MEL-5 30.8 µM | M14 19.5 µM | SW-620 21.1 µM | UACC-257 23.1 µM | NCI-H460 42 µM | NCI/ADR-RES 29.6 µM | CAKI-1 22.2 µM

COc1cc(C)cc(C(=O)OCc2ccccc2)c1C1=C(Cl)C(=O)C(Cl)=CC1=O
inactive: HOP-62 > 10 µM | OVCAR-3 4.6 µM | PC-3 > 10 µM | BT-549 > 10 µM | UACC-62 > 10 µM | MCF7 > 9.42 µM | DU-145 > 10 µM | RXF 393 > 10 µM | Malme-3M > 10 µM | HT-29 > 10 µM | OVCAR-5 > 10 µM | SF-268 > 10 µM | T47D 6.44 µM | SK-MEL-5 > 10 µM | M14 > 10 µM | SW-620 > 7.59 µM | UACC-257 > 9.02 µM | NCI-H460 > 10 µM | NCI/ADR-RES > 10 µM | CAKI-1 > 10 µM

NC1=Nc2cc(C(F)(F)F)ccc2Sc2nc3ccccc3n21
inactive: HOP-62 > 60 µM | OVCAR-3 33.1 µM | PC-3 10.3 µM | BT-549 > 100 µM | UACC-62 57.4 µM | MCF7 > 76.9 µM | DU-145 > 94.6 µM | RXF 393 > 53.5 µM | Malme-3M > 86.1 µM | HT-29 12.6 µM | OVCAR-5 > 52.8 µM | SF-268 16.6 µM | T47D 26.6 µM | SK-MEL-5 6.73 µM | M14 3.98 µM | SW-620 > 100 µM | UACC-257 41.2 µM | NCI-H460 10.1 µM | NCI/ADR-RES > 100 µM | CAKI-1 84.9 µM

Cc1cc(NN)nc2[nH]nc(N)c12
inactive: HOP-62 > 100 µM | OVCAR-3 > 100 µM | PC-3 > 100 µM | BT-549 > 100 µM | UACC-62 > 100 µM | MCF7 > 100 µM | DU-145 > 100 µM | RXF 393 > 100 µM | Malme-3M > 100 µM | HT-29 > 100 µM | OVCAR-5 > 100 µM | SF-268 > 100 µM | T47D > 100 µM | SK-MEL-5 > 100 µM | M14 > 100 µM | SW-620 > 100 µM | UACC-257 > 100 µM | NCI-H460 > 100 µM | NCI/ADR-RES > 100 µM | CAKI-1 > 100 µM

C=C1C[C@H](O)[C@H]2C(C[Se]c3ccccc3)C(=O)O[C@@H]2[C@H]2[C@H](C)C(O)C[C@@H]12 (stereo not given in full)
inactive: HOP-62 > 100 µM | OVCAR-3 24.4 µM | PC-3 22.7 µM | BT-549 28.8 µM | UACC-62 19.1 µM | MCF7 > 100 µM | DU-145 44.2 µM | RXF 393 13.1 µM | Malme-3M 40.6 µM | HT-29 46.1 µM | OVCAR-5 20.6 µM | SF-268 67.6 µM | T47D 28.3 µM | SK-MEL-5 33.6 µM | M14 31.5 µM | SW-620 27.5 µM | UACC-257 37.9 µM | NCI-H460 34 µM | NCI/ADR-RES 20.2 µM | CAKI-1 71.6 µM

c1ccc2c(C3CCN(CCN4CCOCC4)C3)c[nH]c2c1 (stereo not given)
inactive: HOP-62 > 100 µM | OVCAR-3 > 100 µM | PC-3 > 100 µM | BT-549 > 100 µM | UACC-62 > 100 µM | MCF7 > 100 µM | DU-145 > 100 µM | RXF 393 > 100 µM | Malme-3M > 100 µM | HT-29 > 100 µM | OVCAR-5 > 100 µM | SF-268 > 100 µM | T47D > 100 µM | SK-MEL-5 > 100 µM | M14 > 100 µM | SW-620 > 100 µM | UACC-257 > 100 µM | NCI-H460 > 100 µM | NCI/ADR-RES > 100 µM | CAKI-1 > 100 µM

COc1ccc2nc3n(c2c1)CCc1cc(OC)c(OC)cc1-3
inactive: HOP-62 58.2 µM | OVCAR-3 46.7 µM | PC-3 39.4 µM | BT-549 30 µM | UACC-62 32.3 µM | MCF7 42.5 µM | DU-145 83.8 µM | RXF 393 > 100 µM | Malme-3M 91 µM | HT-29 26.7 µM | OVCAR-5 > 100 µM | SF-268 > 100 µM | T47D 34.6 µM | SK-MEL-5 18.7 µM | M14 39.9 µM | SW-620 71.3 µM | UACC-257 55 µM | NCI-H460 50.5 µM | NCI/ADR-RES 45.2 µM | CAKI-1 42.4 µM
